Results reported in ChEMBL document CHEMBL5649169 (ChemMedChem, 2018).

Columns and labels:
[1] = molecular target: Small ribosomal subunit protein uS5 (Homo sapiens) (UniProt P15880)
[2] = molecular target: Large ribosomal subunit protein eL36 (Homo sapiens) (UniProt Q9Y3U8)
[3] = molecular target: Delta-1-pyrroline-5-carboxylate synthase (Homo sapiens) (UniProt P54886)
[4] = molecular target: AP-2 complex subunit mu (Homo sapiens) (UniProt Q96CW1)
[5] = molecular target: Serine/threonine-protein kinase 16 (Homo sapiens) (UniProt O75716)
[6] = molecular target: Probable ATP-dependent RNA helicase DDX20 (Homo sapiens) (UniProt Q9UHI6)
Vinculin (Homo sapiens) = Vinculin (Homo sapiens) (UniProt P18206)
Vinculin (Homo sapiens), sequence (P18206 whole entry): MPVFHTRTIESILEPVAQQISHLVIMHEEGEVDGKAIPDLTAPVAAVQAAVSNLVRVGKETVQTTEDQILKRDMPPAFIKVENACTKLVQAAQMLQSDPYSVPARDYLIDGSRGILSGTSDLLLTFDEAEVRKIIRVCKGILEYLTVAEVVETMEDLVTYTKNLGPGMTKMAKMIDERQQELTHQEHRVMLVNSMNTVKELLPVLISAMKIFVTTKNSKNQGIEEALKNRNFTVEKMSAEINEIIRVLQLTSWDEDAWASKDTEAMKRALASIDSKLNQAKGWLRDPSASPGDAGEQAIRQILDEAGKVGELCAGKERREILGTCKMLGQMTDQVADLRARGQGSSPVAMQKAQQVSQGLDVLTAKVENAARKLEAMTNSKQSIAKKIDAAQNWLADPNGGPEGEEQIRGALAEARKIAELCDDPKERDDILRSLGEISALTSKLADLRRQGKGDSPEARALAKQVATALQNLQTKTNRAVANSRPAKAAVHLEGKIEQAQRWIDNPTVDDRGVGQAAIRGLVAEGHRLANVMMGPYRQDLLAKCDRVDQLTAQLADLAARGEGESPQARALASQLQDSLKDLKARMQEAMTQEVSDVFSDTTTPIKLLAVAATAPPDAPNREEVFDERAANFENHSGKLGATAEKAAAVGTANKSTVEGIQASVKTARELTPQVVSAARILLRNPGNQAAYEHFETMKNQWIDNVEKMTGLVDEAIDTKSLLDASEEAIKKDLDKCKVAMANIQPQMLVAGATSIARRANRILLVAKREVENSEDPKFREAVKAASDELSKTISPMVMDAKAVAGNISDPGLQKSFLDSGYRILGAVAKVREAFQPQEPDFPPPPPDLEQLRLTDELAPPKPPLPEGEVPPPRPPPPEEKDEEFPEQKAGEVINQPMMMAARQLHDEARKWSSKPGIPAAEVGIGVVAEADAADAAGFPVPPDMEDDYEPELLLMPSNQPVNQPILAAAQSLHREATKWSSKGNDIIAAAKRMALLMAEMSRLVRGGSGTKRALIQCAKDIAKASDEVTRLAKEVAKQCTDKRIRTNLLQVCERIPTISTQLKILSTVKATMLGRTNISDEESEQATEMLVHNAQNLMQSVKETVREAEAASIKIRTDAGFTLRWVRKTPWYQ

[7] = molecular target: Membrane-associated tyrosine- and threonine-specific cdc2-inhibitory kinase (Homo sapiens) (UniProt Q99640)
Membrane-associated tyrosine- and threonine-specific cdc2-inhibitory kinase (Homo sapiens), sequence (Q99640 whole entry): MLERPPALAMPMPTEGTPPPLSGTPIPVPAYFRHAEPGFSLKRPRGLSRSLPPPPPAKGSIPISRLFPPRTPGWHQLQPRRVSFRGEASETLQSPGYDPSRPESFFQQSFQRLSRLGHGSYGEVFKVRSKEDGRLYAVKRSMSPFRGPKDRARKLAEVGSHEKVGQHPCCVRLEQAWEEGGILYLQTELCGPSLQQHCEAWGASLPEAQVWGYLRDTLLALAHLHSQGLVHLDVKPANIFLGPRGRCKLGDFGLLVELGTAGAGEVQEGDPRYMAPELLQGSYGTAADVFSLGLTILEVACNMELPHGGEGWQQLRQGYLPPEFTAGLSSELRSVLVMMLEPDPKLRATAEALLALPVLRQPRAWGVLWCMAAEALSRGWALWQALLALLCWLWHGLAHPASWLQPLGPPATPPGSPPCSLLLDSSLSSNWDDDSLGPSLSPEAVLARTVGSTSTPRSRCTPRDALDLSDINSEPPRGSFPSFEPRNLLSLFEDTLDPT

[8] = molecular target: Protein THEM6 (Homo sapiens) (UniProt Q8WUY1)
[9] = molecular target: Breakpoint cluster region protein (Homo sapiens) (UniProt P11274)
[10] = molecular target: Adenosine 5'-monophosphoramidase HINT1 (Homo sapiens) (UniProt P49773)
[11] = molecular target: Phosphatidylserine synthase 1 (Homo sapiens) (UniProt P48651)
[12] = molecular target: Nucleoside diphosphate kinase A (Homo sapiens) (UniProt P15531)
[13] = molecular target: Peroxiredoxin-1 (Homo sapiens) (UniProt Q06830)
[14] = molecular target: RNA cytosine C(5)-methyltransferase NSUN2 (Homo sapiens) (UniProt Q08J23)
[15] = molecular target: Large ribosomal subunit protein eL20 (Homo sapiens) (UniProt Q02543)
[16] = molecular target: Cold shock domain-containing protein E1 (Homo sapiens) (UniProt O75534)
Cold shock domain-containing protein E1 (Homo sapiens), sequence (O75534 whole entry, the tested form may be a part): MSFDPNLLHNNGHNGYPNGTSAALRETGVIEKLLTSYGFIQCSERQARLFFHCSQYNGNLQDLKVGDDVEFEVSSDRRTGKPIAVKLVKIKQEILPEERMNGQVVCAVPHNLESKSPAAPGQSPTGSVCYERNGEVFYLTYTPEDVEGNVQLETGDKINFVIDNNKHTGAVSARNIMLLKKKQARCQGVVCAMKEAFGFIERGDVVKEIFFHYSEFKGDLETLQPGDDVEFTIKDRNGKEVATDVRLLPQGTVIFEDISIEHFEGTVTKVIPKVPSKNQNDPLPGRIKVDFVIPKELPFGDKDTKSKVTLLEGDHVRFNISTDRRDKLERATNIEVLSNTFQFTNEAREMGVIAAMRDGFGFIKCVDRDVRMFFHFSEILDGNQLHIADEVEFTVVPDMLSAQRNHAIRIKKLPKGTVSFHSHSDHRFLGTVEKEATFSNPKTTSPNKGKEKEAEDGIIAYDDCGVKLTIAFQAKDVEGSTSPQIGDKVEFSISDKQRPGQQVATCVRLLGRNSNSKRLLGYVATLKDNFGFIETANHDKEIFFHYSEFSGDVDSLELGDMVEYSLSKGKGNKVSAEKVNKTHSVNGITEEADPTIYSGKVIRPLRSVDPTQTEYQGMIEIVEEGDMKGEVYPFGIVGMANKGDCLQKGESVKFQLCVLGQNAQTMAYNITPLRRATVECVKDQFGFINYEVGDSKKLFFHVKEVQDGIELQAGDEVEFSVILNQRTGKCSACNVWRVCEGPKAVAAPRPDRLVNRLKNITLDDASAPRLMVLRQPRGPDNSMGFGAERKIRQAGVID

[17] = molecular target: Cyclin-dependent kinase 4 (Homo sapiens) (UniProt P11802)
Cyclin-dependent kinase 4 (Homo sapiens), sequence (P11802 whole entry): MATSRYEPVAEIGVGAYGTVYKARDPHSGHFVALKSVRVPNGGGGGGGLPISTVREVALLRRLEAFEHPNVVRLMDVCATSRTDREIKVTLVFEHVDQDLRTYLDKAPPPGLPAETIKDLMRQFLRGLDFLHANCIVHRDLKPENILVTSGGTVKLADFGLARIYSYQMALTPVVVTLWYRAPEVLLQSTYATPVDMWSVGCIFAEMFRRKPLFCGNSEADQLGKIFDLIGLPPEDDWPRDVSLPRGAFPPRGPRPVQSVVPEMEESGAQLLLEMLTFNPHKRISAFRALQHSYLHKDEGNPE

[18] = molecular target: Histone acetyltransferase type B catalytic subunit (Homo sapiens) (UniProt O14929)
Histone acetyltransferase type B catalytic subunit (Homo sapiens), sequence (O14929 2-419 limits assumed): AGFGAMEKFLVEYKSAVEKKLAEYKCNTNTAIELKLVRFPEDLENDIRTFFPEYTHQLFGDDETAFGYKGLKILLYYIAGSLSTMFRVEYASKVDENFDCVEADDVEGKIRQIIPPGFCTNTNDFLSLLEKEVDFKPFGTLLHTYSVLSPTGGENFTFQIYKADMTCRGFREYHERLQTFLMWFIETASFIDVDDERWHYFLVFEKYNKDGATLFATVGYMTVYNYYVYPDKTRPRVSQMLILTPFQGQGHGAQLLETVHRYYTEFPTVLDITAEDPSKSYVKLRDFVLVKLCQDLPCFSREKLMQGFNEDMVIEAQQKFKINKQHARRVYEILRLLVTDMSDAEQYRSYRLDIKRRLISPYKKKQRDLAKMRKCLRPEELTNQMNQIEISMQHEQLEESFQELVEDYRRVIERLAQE

[19] = molecular target: Serine-protein kinase ATM (Homo sapiens) (UniProt Q13315)
[20] = molecular target: Transketolase (Homo sapiens) (UniProt P29401)
[21] = molecular target: Cytochrome c oxidase subunit 5B, mitochondrial (Homo sapiens) (UniProt P10606)
Cytochrome c oxidase subunit 5B, mitochondrial (Homo sapiens), sequence (P10606 whole entry): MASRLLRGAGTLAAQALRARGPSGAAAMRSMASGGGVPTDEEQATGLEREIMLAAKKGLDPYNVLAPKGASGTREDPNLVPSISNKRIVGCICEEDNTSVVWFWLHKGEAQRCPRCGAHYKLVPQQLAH

[22] = molecular target: Serine/threonine-protein kinase PAK 2 (Homo sapiens) (UniProt Q13177)
[23] = molecular target: ORM1-like protein 3 (Homo sapiens) (UniProt Q8N138)
[24] = molecular target: Histone-binding protein RBBP4 (Homo sapiens) (UniProt Q09028)
[25] = molecular target: Serine/arginine-rich splicing factor 3 (Homo sapiens) (UniProt P84103)
Serine/arginine-rich splicing factor 3 (Homo sapiens), sequence (P84103 whole entry): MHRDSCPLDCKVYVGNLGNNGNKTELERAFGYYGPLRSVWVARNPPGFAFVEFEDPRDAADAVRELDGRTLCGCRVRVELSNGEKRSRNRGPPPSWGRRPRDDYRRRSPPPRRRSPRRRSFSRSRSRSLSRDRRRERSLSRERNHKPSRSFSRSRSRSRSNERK

[26] = molecular target: Splicing factor, proline- and glutamine-rich (Homo sapiens) (UniProt P23246)
[27] = molecular target: RNA-binding protein RO60 (Homo sapiens) (UniProt P10155)
[28] = molecular target: Mitogen-activated protein kinase 1 (Homo sapiens) (UniProt P28482)
[29] = molecular target: Protein MAL2 (Homo sapiens) (UniProt Q969L2)
[30] = molecular target: Large ribosomal subunit protein uL15 (Homo sapiens) (UniProt P46776)
[31] = molecular target: Small ribosomal subunit protein uS13 (Homo sapiens) (UniProt P62269)
[32] = molecular target: Fructose-bisphosphate aldolase A (Homo sapiens) (UniProt P04075)
[33] = molecular target: Stalled ribosome sensor GCN1 (Homo sapiens) (UniProt Q92616)
[34] = molecular target: Ubiquitin carboxyl-terminal hydrolase 10 (Homo sapiens) (UniProt Q14694)
Ubiquitin carboxyl-terminal hydrolase 10 (Homo sapiens), sequence (Q14694 whole entry): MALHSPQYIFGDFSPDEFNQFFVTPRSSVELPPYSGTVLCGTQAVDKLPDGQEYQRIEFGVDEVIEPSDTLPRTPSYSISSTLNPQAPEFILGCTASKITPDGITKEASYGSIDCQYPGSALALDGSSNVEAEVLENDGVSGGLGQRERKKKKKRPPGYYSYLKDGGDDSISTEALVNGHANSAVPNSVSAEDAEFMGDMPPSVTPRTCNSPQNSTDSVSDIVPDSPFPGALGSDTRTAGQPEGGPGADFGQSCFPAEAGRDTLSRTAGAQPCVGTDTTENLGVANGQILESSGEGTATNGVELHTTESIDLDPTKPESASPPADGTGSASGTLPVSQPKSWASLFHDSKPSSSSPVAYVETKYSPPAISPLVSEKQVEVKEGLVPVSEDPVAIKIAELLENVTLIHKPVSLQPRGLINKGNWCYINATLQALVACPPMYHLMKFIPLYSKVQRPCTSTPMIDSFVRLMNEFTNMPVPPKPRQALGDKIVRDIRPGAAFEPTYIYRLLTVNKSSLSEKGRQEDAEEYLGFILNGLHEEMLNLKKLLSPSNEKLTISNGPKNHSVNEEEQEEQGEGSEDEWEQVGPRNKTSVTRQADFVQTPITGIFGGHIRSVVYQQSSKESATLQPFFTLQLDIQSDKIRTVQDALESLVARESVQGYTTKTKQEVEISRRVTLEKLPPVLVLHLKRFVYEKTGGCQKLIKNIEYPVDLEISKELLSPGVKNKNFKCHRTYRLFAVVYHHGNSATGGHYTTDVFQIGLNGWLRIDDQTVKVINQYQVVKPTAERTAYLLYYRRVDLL

[35] = molecular target: Membrane-associated progesterone receptor component 1 (Homo sapiens) (UniProt O00264)
[36] = molecular target: Peroxisomal multifunctional enzyme type 2 (Homo sapiens) (UniProt P51659)
Peroxisomal multifunctional enzyme type 2 (Homo sapiens), sequence (P51659 whole entry): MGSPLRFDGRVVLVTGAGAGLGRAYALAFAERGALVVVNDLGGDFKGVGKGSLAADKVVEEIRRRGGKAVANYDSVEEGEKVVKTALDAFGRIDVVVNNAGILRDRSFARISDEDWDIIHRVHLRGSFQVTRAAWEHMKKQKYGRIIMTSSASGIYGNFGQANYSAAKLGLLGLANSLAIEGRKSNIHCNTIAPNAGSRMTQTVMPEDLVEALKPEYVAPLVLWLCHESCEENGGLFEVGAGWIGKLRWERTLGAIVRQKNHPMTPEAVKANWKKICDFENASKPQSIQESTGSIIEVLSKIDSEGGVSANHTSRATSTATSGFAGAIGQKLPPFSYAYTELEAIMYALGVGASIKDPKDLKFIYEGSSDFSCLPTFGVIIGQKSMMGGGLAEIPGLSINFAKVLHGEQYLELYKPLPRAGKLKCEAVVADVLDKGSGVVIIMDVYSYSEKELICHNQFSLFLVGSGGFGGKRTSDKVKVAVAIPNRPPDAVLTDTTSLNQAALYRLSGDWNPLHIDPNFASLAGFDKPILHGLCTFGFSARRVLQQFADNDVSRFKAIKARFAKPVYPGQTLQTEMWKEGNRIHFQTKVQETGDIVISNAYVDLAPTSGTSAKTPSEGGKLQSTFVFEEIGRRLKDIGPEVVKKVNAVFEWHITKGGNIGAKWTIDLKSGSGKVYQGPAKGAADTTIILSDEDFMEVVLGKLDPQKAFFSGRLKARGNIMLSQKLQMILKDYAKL

[37] = molecular target: Interleukin-1 receptor-associated kinase 4 (Homo sapiens) (UniProt Q9NWZ3)
[38] = molecular target: FACT complex subunit SPT16 (Homo sapiens) (UniProt Q9Y5B9)
[39] = molecular target: Activated CDC42 kinase 1 (Homo sapiens) (UniProt Q07912)
[40] = molecular target: Cytochrome b-c1 complex subunit 1, mitochondrial (Homo sapiens) (UniProt P31930)
[41] = molecular target: E3 ubiquitin-protein ligase synoviolin (Homo sapiens) (UniProt Q86TM6)
[42] = molecular target: Cyclin-G-associated kinase (Homo sapiens) (UniProt O14976)
[43] = molecular target: Hepatoma-derived growth factor (Homo sapiens) (UniProt P51858)
[44] = molecular target: Actin-related protein 2 (Homo sapiens) (UniProt P61160)
[45] = molecular target: Transformer-2 protein homolog beta (Homo sapiens) (UniProt P62995)
Also: assay method not described here.

Cc1ccc(C(=O)Nc2cccc(C(F)(F)F)c2)cc1Nc1nc(-c2cccnc2)nc2c1cnn2C was tested, and the ED50 [1] was 0.0804 µM, the ED50 [2] was 10.5 µM and the ED50 [3] was 224 µM. The ED50 [4] was 5.13 µM, the ED50 [5] was 0.13 µM and the ED50 [6] was 0.616 µM. For the same compound, the ED50 (Vinculin (Homo sapiens)) was 0.359 µM, the ED50 [7] was 0.00995 µM and the ED50 [8] was 1.7 µM. It also gave an ED50 [9] of 0.488 µM, an ED50 [10] of 0.00551 µM and an ED50 [11] of 6.64 µM. It also gave an ED50 [12] of 7.65 µM, an ED50 [13] of 0.0459 µM and an ED50 [14] of 48.7 µM. It also gave an ED50 [15] of 0.0981 µM, an ED50 [16] of 72.6 µM and an ED50 [17] of 0.000606 µM. The ED50 [18] was 0.183 µM, the ED50 [19] was 8680 µM and the ED50 [20] was 0.167 µM. For the same compound, the ED50 (Homo sapiens) was 2.31 µM, the ED50 [21] was 39.4 µM and the ED50 [22] was 19.6 µM. It also gave an ED50 [23] of 5.95 µM, an ED50 [24] of 11 µM and an ED50 [25] of 1.06 µM. The ED50 [26] was 6.39 µM, the ED50 [27] was 2.18 µM and the ED50 [28] was 0.027 µM. For the same compound, the ED50 [29] was 0.177 µM, the ED50 [30] was 5.95 µM and the ED50 [31] was 2.79 µM. The ED50 [32] was 3.97 µM, the ED50 [33] was 0.085 µM and the ED50 [34] was 4.33 µM. It also gave an ED50 [35] of 0.651 µM, an ED50 [36] of 1.36 µM and an ED50 [37] of 0.466 µM. The ED50 [38] was 0.0046 µM, the ED50 [39] was 2.19 µM and the ED50 [40] was 65.5 µM. It also gave an ED50 [41] of 0.162 µM, an ED50 [42] of 4.02 µM and an ED50 [43] of 0.0049 µM. The ED50 [44] was 0.174 µM and the ED50 [45] was 0.0121 µM.
Compound Cc1ccc(C(=O)Nc2cccc(C(F)(F)F)c2)cc1Nc1nc(-c2cccnc2)nc2nn(C)cc12 has an ED50 [1] of 1.83 µM, an ED50 [2] of 0.0103 µM and an ED50 [3] of 41.7 µM. It also gave an ED50 [4] of 211 µM, an ED50 [5] of 0.0232 µM and an ED50 [6] of 0.0285 µM. For the same compound, the ED50 (Vinculin (Homo sapiens)) was 68.1 µM, the ED50 [7] was 0.0846 µM and the ED50 [8] was 0.0621 µM. The ED50 [9] was 0.852 µM, the ED50 [10] was 0.318 µM and the ED50 [11] was 0.0845 µM. It also gave an ED50 [12] of 2.02 µM, an ED50 [13] of 9.72 µM and an ED50 [14] of 0.000187 µM. The ED50 [15] was 3.15 µM, the ED50 [16] was 0.099 µM and the ED50 [17] was 10.1 µM. It also gave an ED50 [18] of 0.0527 µM, an ED50 [19] of 1.99 µM and an ED50 [20] of 0.151 µM. It also gave an ED50 (Homo sapiens) of 0.716 µM, an ED50 [21] of 15 µM and an ED50 [22] of 42.5 µM. It also gave an ED50 [23] of 7.47 µM, an ED50 [24] of 0.458 µM and an ED50 [25] of 0.0813 µM. The ED50 [26] was 15 µM, the ED50 [27] was 0.0205 µM and the ED50 [28] was 0.0471 µM. For the same compound, the ED50 [29] was 1.68 µM, the ED50 [30] was 16.7 µM and the ED50 [31] was 0.00691 µM. For the same compound, the ED50 [32] was 0.0716 µM, the ED50 [33] was 0.0579 µM and the ED50 [34] was 0.0387 µM. For the same compound, the ED50 [35] was 23.2 µM, the ED50 [36] was 0.85 µM and the ED50 [37] was 647 µM. For the same compound, the ED50 [38] was 0.149 µM, the ED50 [39] was 10.3 µM and the ED50 [40] was 0.00513 µM. For the same compound, the ED50 [41] was 0.00734 µM, the ED50 [42] was 2.32 µM and the ED50 [43] was 12.4 µM. For the same compound, the ED50 [44] was 17 µM and the ED50 [45] was 0.537 µM.
